Data reported in the supplement of paper PMC10307832.

Key:
Test in all cases: relative viability (nuclei count vs DMSO), 5 days (fraction); higher = more cells survive
[1] = compound: Cn1c(=O)n(-c2ccc(C(C)(C)C#N)cc2)c2c3cc(-c4cnc5ccccc5c4)ccc3ncc21 [Dactolisib] + C[C@@H](Oc1cc(-c2cnn(C3CCNCC3)c2)cnc1N)c1c(Cl)ccc(F)c1Cl [Crizotinib] (partner 1 µM)
How it was run: (§1)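 Lung cancer cell lines in 1536-well plates got either a single drug or a fixed anchor-drug dose together with five library-drug doses (not always all listed) in √10 steps, by pin tool, on the day after seeding. Nuclei were counted after 5 days, and relative viability is the treated-to-vehicle ratio of nuclei counts. Values are medians of duplicate plates.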

[2] = compound: C1CCC(CC1)N(CCNCCC2=C3C(=C(C=C2)O)NC(=O)CO3)C(=O)CCNCCC4=CC(=C(C=C4)Cl)Cl [AZ505] + Cc1nc(NC(=O)N2CCC[C@H]2C(N)=O)sc1-c1ccnc(C(C)(C)C(F)(F)F)c1 [Alpelisib] (partner 2 µM)
How it was run: as §1

[3] = compound: Cn1c(=O)n(-c2ccc(C(C)(C)C#N)cc2)c2c3cc(-c4cnc5ccccc5c4)ccc3ncc21 [Dactolisib] + COc1cc2c(Oc3ccc(NC(=O)C4(C(=O)Nc5ccc(F)cc5)CC4)cc3F)ccnc2cc1OCCCN1CCOCC1 [Foretinib] (partner 0.25 µM)
How it was run: as §1

[4] = compound: C1CCC(CC1)N(CCNCCC2=C3C(=C(C=C2)O)NC(=O)CO3)C(=O)CCNCCC4=CC(=C(C=C4)Cl)Cl [AZ505] + Cc1nc(Nc2ncc(C(=O)Nc3c(C)cccc3Cl)s2)cc(N2CCN(CCO)CC2)n1 [Dasatinib] (partner 0.075 µM)
How it was run: as §1

Row | Cell Line | relative viability ([1]; first compound 0.002 µM) | relative viability ([1]; first compound 0.006325 µM) | relative viability ([1]; first compound 0.02 µM) | relative viability ([1]; first compound 0.06325 µM) | relative viability ([1]; first compound 0.2 µM) | relative viability ([2]; first compound 0.08 µM) | relative viability ([2]; first compound 0.253 µM) | relative viability ([2]; first compound 0.8 µM) | relative viability ([2]; first compound 2.53 µM) | relative viability ([2]; first compound 8 µM) | relative viability ([3]; first compound 0.002 µM) | relative viability ([3]; first compound 0.006325 µM) | relative viability ([3]; first compound 0.02 µM) | relative viability ([3]; first compound 0.06325 µM) | relative viability ([3]; first compound 0.2 µM) | relative viability ([4]; first compound 0.08 µM) | relative viability ([4]; first compound 0.253 µM) | relative viability ([4]; first compound 0.8 µM) | relative viability ([4]; first compound 2.53 µM) | relative viability ([4]; first compound 8 µM)
1 | HCC-44 | 0.879 | 0.763 | 0.816 | 0.446 | 0.414 | 0.734 | 0.751 | 0.75 | 0.901 | 0.869 |  |  |  |  |  |  |  |  |  | 
2 | HCC-78 | 0.316 | 0.331 | 0.285 | 0.266 | 0.222 |  | 0.515 | 0.306 | 0.411 | 0.462 | 0.629 | 0.589 | 0.451 | 0.376 | 0.338 | 0.336 | 0.411 | 0.333 | 0.445 | 0.425
3 | HCC-366 | 0.409 | 0.574 | 0.531 | 0.302 | 0.168 | 0.306 | 0.379 | 0.326 | 0.411 | 0.385 | 0.914 | 0.986 | 0.955 | 0.94 | 0.368 | 0.604 | 0.625 | 0.78 | 0.527 | 0.608
4 | HCC-827 | 0.978 | 0.897 | 0.992 | 0.809 | 0.506 | 0.921 | 0.997 | 0.87 | 0.947 | 1.06 | 0.995 | 1.04 | 0.913 | 0.815 | 0.283 | 0.399 | 0.35 | 0.385 | 0.313 | 0.407
5 | HOP-62 | 1.06 | 1.01 | 0.923 | 0.505 | 0.472 | 0.94 | 1.17 | 0.889 | 0.844 | 1.04 | 1.26 | 1.1 | 0.974 | 0.747 | 0.516 | 0.528 | 0.644 | 0.484 | 0.598 | 0.64
6 | IA-LM | 0.903 | 0.561 | 0.539 | 0.162 | 0.0865 | 0.793 | 1.05 | 0.925 | 0.723 | 1 | 1.28 | 1.07 | 0.837 | 0.497 | 0.453 |  |  |  |  | 
7 | LC-2-ad | 0.403 | 0.477 | 0.505 | 0.338 | 0.4 | 0.774 | 0.797 | 0.832 | 0.957 | 0.877 | 1.08 | 0.917 | 0.839 | 0.545 | 0.551 | 0.578 | 0.564 | 0.558 | 0.604 | 0.665
8 | LCLC-97TM1 | 0.509 | 0.373 | 0.277 | 0.149 | 0.145 | 0.327 | 0.333 | 0.26 | 0.247 | 0.363 | 1.05 | 0.923 | 0.688 | 0.668 | 0.367 | 0.77 | 0.795 | 0.767 | 0.674 | 0.88
9 | LCLC-103H | 1.03 | 0.985 | 1.08 | 0.675 | 0.461 | 0.853 | 0.818 | 0.977 | 0.848 | 0.957 | 1.05 | 0.763 | 0.654 | 0.517 | 0.303 | 0.407 | 0.415 | 0.393 | 0.481 | 0.451
10 | LK-2 | 0.209 | 0.244 | 0.266 | 0.213 | 0.216 | 0.968 | 0.923 | 1.29 | 1.13 | 1.16 | 1.19 | 0.997 | 0.766 | 0.444 | 0.196 | 0.254 | 0.327 | 0.415 | 0.431 | 0.366
11 | NCI-H522 |  |  |  |  |  |  |  |  |  |  |  |  |  |  |  | 0.923 | 0.843 | 0.801 | 0.877 | 0.948
12 | NCI-H1299 | 0.941 | 0.964 | 0.997 | 0.76 | 0.649 | 0.986 | 1.06 | 1.01 | 0.978 | 0.998 | 1.09 | 1.1 | 1.11 | 0.982 | 1.06 |  |  |  |  | 
13 | NCI-H1395 |  |  |  |  |  | 1.1 | 1.3 | 0.935 | 1.11 | 1.16 | 1.03 | 0.916 | 0.942 | 0.636 | 0.537 | 0.427 | 0.451 | 0.375 | 0.419 | 0.455
14 | NCI-H1623 |  |  |  |  |  |  |  |  |  |  | 0.907 | 0.882 | 0.768 | 0.596 | 0.418 | 0.488 | 0.466 | 0.598 | 0.479 | 0.612
15 | NCI-H1650 | 0.832 | 0.944 | 0.718 | 0.823 | 0.559 |  |  |  |  |  | 1.08 | 1.05 | 0.919 | 0.781 | 0.531 | 0.298 | 0.281 | 0.37 | 0.321 | 0.295
16 | NCI-H1703 | 0.581 | 0.49 | 0.373 | 0.35 | 0.18 | 0.292 | 0.372 | 0.414 | 0.341 | 0.369 |  | 0.389 | 0.381 | 0.281 | 0.325 |  |  |  |  | 
17 | NCI-H1792 | 1.15 | 0.971 | 0.921 | 0.601 | 0.294 | 0.719 | 0.769 | 0.66 | 0.701 | 0.642 |  |  |  |  |  | 0.734 |  | 0.697 | 0.69 | 0.684
18 | NCI-H1793 |  |  |  |  |  | 0.734 | 0.804 | 0.827 | 0.844 | 0.881 | 0.655 | 0.416 | 0.241 | 0.2 | 0.166 | 0.345 | 0.439 | 0.394 |  | 0.439
19 | NCI-H2342 |  |  |  |  |  |  |  |  |  |  | 1.1 | 0.96 | 0.855 | 0.679 | 0.525 | 0.312 | 0.317 | 0.316 | 0.346 | 0.351
20 | SW 900 |  |  |  |  |  |  |  |  |  |  | 1.03 | 0.828 | 0.832 | 0.576 | 0.3 | 0.584 | 0.458 | 0.54 | 0.919 | 0.658
